According to US20100261753A1, “METHODS FOR PREVENTING AND/OR TREATING DEGENERATIVE DISORDERS OF THE CENTRAL NERVOUS SYSTEM” (AMICUS THERAPEUTICS, INC., priority 2009, published 2010):
Structures can show the parent of a compound that is named as a salt. Where two headings read alike, the source gives them in different places.

What was measured:
GCase [1] = molecular target: T1, GCase (Mus musculus, UniProt P17439); assay: GCase enhancement in tissues of mice after 2-week oral dosing; format: in vivo, mice (C57BL/6); details: for GCase enhancement in brain, spleen, liver and lung: compared to mice administered control or IFG-tartrate; for GCase Increase (-fold): nine doses over 2 weeks
T1 construct: Liver, spleen, lung, and brain tissues were removed; from tissue; host or cells: brain, spleen, liver and lung of wild-type C57BL/6 mice
T1 sequence (P17439 20-515): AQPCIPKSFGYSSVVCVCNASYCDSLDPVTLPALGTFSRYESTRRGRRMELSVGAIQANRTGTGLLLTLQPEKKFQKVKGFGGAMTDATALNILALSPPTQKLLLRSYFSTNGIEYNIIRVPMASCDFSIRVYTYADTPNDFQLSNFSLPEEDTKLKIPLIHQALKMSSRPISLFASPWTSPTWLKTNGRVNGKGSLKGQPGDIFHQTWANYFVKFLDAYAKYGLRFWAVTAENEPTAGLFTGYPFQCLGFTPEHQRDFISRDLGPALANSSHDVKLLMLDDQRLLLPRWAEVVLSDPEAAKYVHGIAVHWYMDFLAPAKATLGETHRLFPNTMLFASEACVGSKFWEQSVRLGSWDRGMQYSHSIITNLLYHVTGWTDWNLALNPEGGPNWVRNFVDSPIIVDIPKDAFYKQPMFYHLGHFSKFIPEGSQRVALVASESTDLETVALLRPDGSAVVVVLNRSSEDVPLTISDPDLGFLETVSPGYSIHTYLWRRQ
Experimental: (§1) The ability of orally administered test compounds (the hydrochloride salt form of Compound A and Compound B) to elevate GCase levels as compared to reference compound, IFG-tartrate, was assessed in mice. […] Seven animals were used per dose. The dosing solutions were prepared in water. Compounds were administered over 2 weeks as follows: week 1, Mon-Fri (On), Sat-Sun (Off); week 2, Mon-Thu (On); necropsy on Friday. Thus, a total of 9 doses (dosing solutions prepared fresh every day) were given to each mouse, with a 24-hour washout between the last dose and necropsy.
(§2) Plasma was collected by spinning blood at 2700 g for 10 minutes at 4° C. Liver, spleen, lung, and brain tissues were removed, washed in cold PBS, blotted dry, flash frozen on dry ice, and stored at −80° C. until analysis. GCase levels were measured by homogenizing approximately 50 mg tissue in 500 μl McIlvane (MI) buffer (100 mM sodium citrate, 200 mM sodium phosphate dibasic, 0.25% sodium taurocholate, and 0.1% Triton X-100, pH 5.2) at pH 5.2 for 3-5 seconds on ice with a micro homogenizer. Homogenates were then incubated at room temperature without and with 2.5 mM conduritol-B-epoxide (CBE) for 30 min. Finally, 3.7 mM 4-methylumbeliferryl-β-glucoside (4-MUG) substrate was added and incubated at 37° C. for 60 min. Reactions were stopped by addition of 0.4 M glycine, pH 10.6. Fluorescence was measured on a plate reader for 1 sec/well using 355 nm excitation and 460 nm emission. Total protein was determined in lysates using the MicroBCA kit according to the manufacturer's instructions. A 4-methylumbelliferone (4-MU) standard curve ranging from 1.0 nM to 50 μM was run in parallel for conversion of raw fluorescence data to absolute GCase activity (in the presence and absence of CBE) and expressed as nanomoles of 4-MU released per milligram of protein per hour (nmol/mg protein/hr). GCase levels and protein levels were calculated using Microsoft Excel (Redmond, Wash.) and GraphPad Prism version 4.02.

Rat pharmacokinetics = format: in vivo, Sprague-Dawley rats
Experimental: Pharmacokinetic (PK) data was obtained in rats to assess the bioavailability of test compound. In particular, the following PK parameters were calculated: bioavailability as measured by area under the Concentration/Time curve (AUC), fraction of dose available (% F; further defined below), clearance (CL), volume of distribution (Vd), and half-life (t½). For this purpose, 8-week old Sprague-Dawley male rats were given either a single intravenous (IV) dose equivalent to 3 mg/kg of free base or single escalating p.o. (gavage) doses of test compound equivalent to 10, 30, and 100 mg/kg of free base. Three rats were used per dosing group. Blood was collected over a 24-hr period. The time points for blood collection after intravenous administration were: 0, 2.5, 5, 10, 15, 30, 45 min, 1, 2, 4, 8, 12, and 24 hrs; time points for blood collection after p.o. administrations were: 0, 5, 15, 30, 45 min, 1, 2, 3, 4, 8, 12, and 24 hrs. Plasma samples were analyzed for compound levels by LC-MS/MS at PPD. Raw data was analyzed by non-compartmental analysis in Win-nonLin to calculate Vd, % F, CL, and […].

GCase [2] = molecular target: T2, GCase (Homo sapiens, UniProt P04062); assay: GCase activity enhancement (EC50, Emax; Table 2B); format: cell-based
T2 sequence (P04062 40-536): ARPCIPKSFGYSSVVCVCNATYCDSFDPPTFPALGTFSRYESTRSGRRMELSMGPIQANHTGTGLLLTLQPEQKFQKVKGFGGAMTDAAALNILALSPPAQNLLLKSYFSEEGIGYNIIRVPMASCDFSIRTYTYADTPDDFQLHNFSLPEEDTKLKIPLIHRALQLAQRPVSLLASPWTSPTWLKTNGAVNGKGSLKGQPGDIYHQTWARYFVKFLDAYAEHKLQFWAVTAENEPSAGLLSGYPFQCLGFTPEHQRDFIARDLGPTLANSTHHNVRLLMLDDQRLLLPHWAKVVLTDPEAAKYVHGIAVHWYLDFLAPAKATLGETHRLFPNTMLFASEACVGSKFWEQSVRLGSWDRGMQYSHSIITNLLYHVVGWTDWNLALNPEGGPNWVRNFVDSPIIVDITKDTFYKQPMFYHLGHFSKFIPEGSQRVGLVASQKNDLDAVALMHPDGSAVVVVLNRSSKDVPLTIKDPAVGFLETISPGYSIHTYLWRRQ

[3] = Compound concentration in brain, spleen and plasma samples of the GCase enhancement study; format: in vivo, mice (C57BL/6); details: male, C57BL/6, mouse, po, nine doses, 24-hour washout
Experimental: as §1, §2

[4] = male, Sprague-Dawley, plasma, IV, 3 mg/kg free base
[5] = brain, 100 mg/kg p.o., Table 4A
[6] = spleen, 10 mg/kg p.o., Table 4B
[7] = spleen, 100 mg/kg p.o., Table 4B

O[C@@H]1CNCC(CF)[C@H]1O (stereo in doubt) [Compound A-HCl, (3R,4R,5R)-5-(fluoromethyl)piperidine-3,4-diol hydrochloride]
GCase enhancement in brain, spleen, liver and lung (GCase [1]): statistically significant greater GCase enhancement | bioavailability (Rat pharmacokinetics; male, Sprague-Dawley, plasma, po, read-out: oral bioavailability): ~50% | half-life (Rat pharmacokinetics; male, Sprague-Dawley, plasma, read-out: half-life): 1 to 2.5 h | effect on GCase activity (GCase [2]): concentration-dependent increase in GCase activity | enhancement of enzyme activity compared to IFG-tartrate (GCase [2]): enhanced enzyme activity to the same maximum level at much lower concentration

O[C@@H]1CNCC(CF)[C@H]1O (stereo in doubt) [Compound A, (3R,4R,5R)-5-(fluoromethyl)piperidine-3,4-diol]
CL (Rat pharmacokinetics; PO, 30 mg/kg free base): 66.82 ± 8.48 mL/min/kg | VD (Rat pharmacokinetics; PO, 30 mg/kg free base): 13.532 ± 3.291 L/kg | CL (Rat pharmacokinetics; PO, 100 mg/kg free base): 56.55 ± 3.48 mL/min/kg | VD (Rat pharmacokinetics; PO, 100 mg/kg free base): 13.101 ± 1.518 L/kg | Cmax (Rat pharmacokinetics; [4]): 7270 ± 139 ng/mL | Vd (Rat pharmacokinetics; [4]): 3.48 ± 0.232 L/kg | clearance (Rat pharmacokinetics; [4]): 27.8 mL/min/kg | AUC(0-t) (Rat pharmacokinetics; male, Sprague-Dawley, plasma, IV, 3 mg/kg free base (3.72 mg/kg salt)): 1800 ± 42.7 ng·h/mL | half-life (Rat pharmacokinetics; male, Sprague-Dawley, plasma, IV, 3 mg/kg free base, read-out: t1/2 (converted)): 1.4 ± 0.1 h | Cmax (Rat pharmacokinetics; male, Sprague-Dawley, plasma, PO, 10 mg/kg free base): 1290 ± 271 ng/mL | AUC(0-t) (Rat pharmacokinetics; male, Sprague-Dawley, plasma, PO, 10 mg/kg free base (12.4 mg/kg salt)): 2980 ± 228 ng·h/mL | bioavailability (Rat pharmacokinetics; male, Sprague-Dawley, plasma, PO, 10 mg/kg free base, read-out: % F): 50 ± 3.8% | half-life (Rat pharmacokinetics; male, Sprague-Dawley, plasma, PO, 10 mg/kg free base, read-out: t1/2 (converted)): 1.2 ± 0.4 h | Cmax (Rat pharmacokinetics; male, Sprague-Dawley, plasma, PO, 30 mg/kg free base): 2870 ± 355 ng/mL | AUC(0-t) (Rat pharmacokinetics; male, Sprague-Dawley, plasma, PO, 30 mg/kg free base (37.2 mg/kg salt)): 8250 ± 388 ng·h/mL | bioavailability (Rat pharmacokinetics; male, Sprague-Dawley, plasma, PO, 30 mg/kg free base, read-out: % F): 46 ± 2.5% | half-life (Rat pharmacokinetics; male, Sprague-Dawley, plasma, PO, 30 mg/kg free base, read-out: t1/2 (converted)): 2.3 ± 0.3 h | Cmax (Rat pharmacokinetics; male, Sprague-Dawley, plasma, PO, 100 mg/kg free base): 9390 ± 742 ng/mL | AUC(0-t) (Rat pharmacokinetics; male, Sprague-Dawley, plasma, PO, 100 mg/kg free base (124 mg/kg salt)): 29600 ± 1750 ng·h/mL | bioavailability (Rat pharmacokinetics; male, Sprague-Dawley, plasma, PO, 100 mg/kg free base, read-out: % F): 49 ± 2.7% | half-life (Rat pharmacokinetics; male, Sprague-Dawley, plasma, PO, 100 mg/kg free base, read-out: t1/2 (converted)): 2.6 ± 0.1 h | concentration at 24 h ([3]; brain, 10 mg/kg p.o., Table 3A): 124 ± 11 nM | concentration at 24 h ([3]; brain, 100 mg/kg p.o., Table 3A): 726 ± 51 nM | concentration at 24 h ([3]; plasma, 10 mg/kg p.o., Table 3C): 32 ± 2.4 nM | concentration at 24 h ([3]; plasma, 100 mg/kg p.o., Table 3C): 254 ± 73.5 nM | concentration at 24 h ([3]; spleen, 10 mg/kg p.o., Table 3B): 69 ± 6 nM | concentration at 24 h ([3]; spleen, 100 mg/kg p.o., Table 3B): 304 ± 63 nM

O[C@@H]1[C@@H](CCl)CNC[C@H]1O [Compound B, (3R,4R,5S)-5-(chloromethyl)piperidine-3,4-diol]
GCase Increase (-fold) (GCase [1]; brain, 10 mg/kg p.o., Table 4A): 1.3 -fold | GCase Increase (-fold) (GCase [1]; [5]): 3.5 -fold | GCase enhancement in brain, spleen, liver and lung (GCase [1]): statistically significant greater GCase enhancement | GCase Increase (-fold) (GCase [1]; [6]): 1.4 -fold | GCase Increase (-fold) (GCase [1]; [7]): 2.2 -fold | EC50 (GCase [2]): 9.6 ± 1 nM | Emax (GCase [2]): 104 ± 3.4% | effect on GCase activity (GCase [2]): concentration-dependent increase in GCase activity | enhancement of enzyme activity compared to IFG-tartrate (GCase [2]): enhanced enzyme activity to the same maximum level at much lower concentration | concentration at 24 h ([3]; brain, 10 mg/kg p.o., Table 4A): 246 ± 42 nM | concentration at 24 h [3, 5]: 2070 ± 231 nM | concentration at 24 h ([3]; plasma, 10 mg/kg p.o., Table 4C): 104 ± 15 nM | concentration at 24 h ([3]; plasma, 100 mg/kg p.o., Table 4C): 1530 ± 601 nM | concentration at 24 h [3, 6]: 645 ± 214 nM | concentration at 24 h [3, 7]: 2160 ± 464 nM
